# Assay results taken from patent US20250313535A1, “ALPHA 4 BETA 7 INTEGRIN MODULATORS AND USES THEREOF” (DICE MOLECULES SV, INC., priority 2022, published 2025).
# Target: T1, α4β7 integrin (Homo sapiens (Human), UniProt P13612+P26010)
# Experiment: Integrin Adhesion Assay: Protocol 1 (MAdCAM-coated plate, RPMI-8866 cells, CellTiter GLO readout)
# Format: cell-based
# Conditions: not given
# Method: α4β7 and α4β1 inhibition was evaluated in vitro using at least one of the following procedures:
# Integrin Adhesion Assay: Protocol 1
# MAdCAM (R&D Systems, 0.1 ug) was diluted in 50 μL PBS, added to each well of an opaque ELISA plate (Thermo), and incubated overnight at 4° C. Coated plates were washed once with PBS and then blocked with 200 μL of assay buffer (10 mM HEPES, 150 mM NaCl, 1 mM MnCl2, 0.1 mM CaCl2), 1% BSA) for 1 hour at 37° C. and 5% CO2. After incubation, buffer was aspirated from the plates and 50 μL of fresh assay buffer is added. Compounds were added by a compouns dispenser (Tecan) and DMSO concentration was normalized to 1% across each plate. 50 μL of RPMI-8866 cells (2×10^6 per mL) were added to each well and the plates were incubated for 1 hour at 37° C. and 5% CO2. After incubation, plates were allowed to cool to RT for 10 minutes before being washed four times in assay buffer by an automated plate washer (BioTek). After washing, 100 μL of a 1:1 mixture of assay buffer and CellTiter GLO 2.0 reagent (Promega) were added to each well. Plates were mixed for 2 minutes at 1000 rpm and then allowed to incubate an additional 10 minutes before reading out luminescence on a Tecan Spark plate reader. Raw data was converted to percent inhibition based on DMSO only and control compound wells, and curves were analyzed by 4-parameter fit within Dotmatics software.
# T1 sequence (P13612 34-1032): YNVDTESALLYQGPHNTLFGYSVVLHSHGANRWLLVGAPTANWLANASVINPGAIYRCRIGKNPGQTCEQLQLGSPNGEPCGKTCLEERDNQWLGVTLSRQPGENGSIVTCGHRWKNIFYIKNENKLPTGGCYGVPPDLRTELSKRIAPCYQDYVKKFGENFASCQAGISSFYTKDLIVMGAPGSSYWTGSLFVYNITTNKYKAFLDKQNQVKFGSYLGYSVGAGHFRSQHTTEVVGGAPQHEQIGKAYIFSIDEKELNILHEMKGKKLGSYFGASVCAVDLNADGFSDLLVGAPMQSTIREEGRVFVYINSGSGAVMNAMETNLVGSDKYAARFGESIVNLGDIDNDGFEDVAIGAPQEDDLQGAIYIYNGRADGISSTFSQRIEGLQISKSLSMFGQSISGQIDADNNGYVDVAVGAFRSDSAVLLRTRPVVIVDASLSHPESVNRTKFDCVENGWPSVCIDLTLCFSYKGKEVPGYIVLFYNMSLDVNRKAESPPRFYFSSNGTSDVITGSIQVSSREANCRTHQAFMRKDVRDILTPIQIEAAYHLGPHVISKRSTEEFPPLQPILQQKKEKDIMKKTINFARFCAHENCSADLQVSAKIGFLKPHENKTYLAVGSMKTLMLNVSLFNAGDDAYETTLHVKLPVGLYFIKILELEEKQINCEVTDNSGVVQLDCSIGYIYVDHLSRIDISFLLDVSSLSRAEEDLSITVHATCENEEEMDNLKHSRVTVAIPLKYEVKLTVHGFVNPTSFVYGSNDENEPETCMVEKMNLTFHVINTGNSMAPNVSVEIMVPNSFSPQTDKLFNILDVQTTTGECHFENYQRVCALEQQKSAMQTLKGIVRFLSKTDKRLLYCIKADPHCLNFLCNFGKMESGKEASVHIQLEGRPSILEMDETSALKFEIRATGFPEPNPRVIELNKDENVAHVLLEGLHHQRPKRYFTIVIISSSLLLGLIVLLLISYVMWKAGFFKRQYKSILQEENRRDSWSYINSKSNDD
# T1 sequence (P26010 20-798): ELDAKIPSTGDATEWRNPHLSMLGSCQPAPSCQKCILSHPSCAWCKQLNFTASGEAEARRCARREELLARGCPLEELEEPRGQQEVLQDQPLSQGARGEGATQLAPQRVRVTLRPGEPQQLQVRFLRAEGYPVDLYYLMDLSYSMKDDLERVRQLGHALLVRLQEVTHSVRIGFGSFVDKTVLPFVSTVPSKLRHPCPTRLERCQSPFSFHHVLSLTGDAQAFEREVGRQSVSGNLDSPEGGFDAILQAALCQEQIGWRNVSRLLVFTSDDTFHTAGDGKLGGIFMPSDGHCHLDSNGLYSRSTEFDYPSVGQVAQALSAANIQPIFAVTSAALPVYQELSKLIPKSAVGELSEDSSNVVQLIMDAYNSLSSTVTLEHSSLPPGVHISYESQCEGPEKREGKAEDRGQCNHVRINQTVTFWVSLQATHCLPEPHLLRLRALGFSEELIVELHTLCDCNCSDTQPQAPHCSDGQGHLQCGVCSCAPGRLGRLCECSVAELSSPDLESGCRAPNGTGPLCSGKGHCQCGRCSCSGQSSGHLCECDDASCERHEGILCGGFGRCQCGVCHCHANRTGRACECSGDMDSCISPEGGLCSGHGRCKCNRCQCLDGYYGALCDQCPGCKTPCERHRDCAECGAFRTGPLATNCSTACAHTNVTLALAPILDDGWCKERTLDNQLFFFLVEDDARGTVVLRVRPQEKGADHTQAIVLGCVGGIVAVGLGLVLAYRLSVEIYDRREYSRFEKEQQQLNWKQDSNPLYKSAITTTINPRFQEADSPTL
row,SMILES,IC50 [nM]
1,Cc1cccc(C)c1-c1cc(C(=O)N[C@@H](Cc2cccc3c(-c4c(C(F)(F)F)c5ccccc5n(C)c4=O)cccc23)C(=O)O)c(F)c(C(F)(F)F)c1 [Compound 303],> 1000
2,COc1ccn2nc(C(=O)N[C@@H](Cc3cccc4c(-c5c(C(F)(F)F)c6ccccc6n(C)c5=O)cccc34)C(=O)O)cc2c1 [Compound 427],> 1000
3,Cn1c(=O)c(-c2cccc3c(C[C@H](NC(=O)c4c(F)cc(-c5ccc(F)c(Cl)c5)cc4F)C(=O)O)cccc23)c(C(F)(F)F)c2ccccc21 [Compound 345],> 1000
4,Cn1c(=O)c(-c2cccc3c(C[C@H](NC(=O)c4c(F)cc(N5CCS(=O)(=O)CC5)cc4F)C(=O)O)cccc23)c(C(F)(F)F)c2ccccc21 [Compound 398],10 to 100
5,Cn1c(=O)c(-c2cccc3c(CC(Nc4nccc5cccc(F)c45)C(=O)O)cccc23)c(C(F)(F)F)c2ccccc21 (centres unmarked) [Compound 437],> 1000
6,Cn1c(=O)c(-c2cccc3c(C[C@H](NC(=O)C45CC(N6CCC(F)(F)CC6)(C4)C5)C(=O)O)cccc23)c(C(F)(F)F)c2ccccc21 [Compound 391],> 1000
7,Cn1c(=O)c(-c2cccc3c(C[C@H](NC(=O)c4cc5ccc(N6CC(F)C6)cn5n4)C(=O)O)cccc23)c(C(F)(F)F)c2ccccc21 [Compound 429],> 1000
8,Cn1c(=O)c(-c2cccc3c(C[C@H](NC(=O)c4c(F)cc(N5CCOCC5c5ccc(C(F)(F)F)cc5)cc4F)C(=O)O)cccc23)c(C(F)(F)F)c2ccccc21 (some centres unmarked) [Compound 344],> 1000
9,CO[C@@H]1C[C@@H](c2cc(F)c(C(=O)N[C@@H](Cc3cccc4c(-c5c(C(F)(F)F)c6ccccc6n(C)c5=O)cccc34)C(=O)O)c(F)c2)N(C)C1 [Compound 464],100 to 1000
10,Cc1cccc(C)c1-c1cc(F)c(C(=O)N[C@@H](Cc2cccc3c(-c4c(C(F)(F)F)c5ccccc5n(C)c4=O)cccc23)C(=O)O)c(F)c1 [Compound 304],> 1000
11,Cn1c(C(F)(F)F)cc(C(F)(F)F)c(-c2cccc3c(C[C@H](NC(=O)[C@]4(C)CC[C@H](N5CCC(F)(F)CC5)CC4)C(=O)O)cccc23)c1=O [Compound 406],> 1000
12,Cn1c(=O)c(-c2cccc3c(C[C@H](NC(=O)c4cc5ccc(N6CC(F)(F)C6)cn5n4)C(=O)O)cccc23)c(C(F)(F)F)c2ccccc21 [Compound 428],> 1000
13,Cn1c(=O)c(-c2cccc3c(C[C@H](NC(=O)c4c(F)cc(N(CC5COC5)C5COC5)cc4F)C(=O)O)cccc23)c(C(F)(F)F)c2ccccc21 [Compound 394],10 to 100
14,Cn1c(=O)c(-c2cccc3c(C[C@H](NC(=O)c4c(F)cc5cn(CC(F)(F)F)nc5c4F)C(=O)O)cccc23)c(C(F)(F)F)c2ccccc21 [Compound 348],100 to 1000
15,Cn1c(=O)c(-c2cccc3c(C[C@H](NC(=O)c4c(F)cc(N5CCOc6ccc(C(F)(F)F)cc65)cc4F)C(=O)O)cccc23)c(C(F)(F)F)c2ccccc21 [Compound 343],> 1000
16,Cn1ccc(C(F)(F)F)c(-c2cccc3c(C[C@H](NC(=O)c4c(F)cc(N5CC(F)(F)OC(F)(F)C5)cc4F)C(=O)O)cccc23)c1=O [Compound 441],10 to 100
17,CO[C@@H]1C[C@H](c2cc(F)c(C(=O)N[C@@H](Cc3cccc4c(-c5c(C(F)(F)F)c6ccccc6n(C)c5=O)cccc34)C(=O)O)c(F)c2)N(C)C1 [Compound 465],100 to 1000
18,CN(C)Cc1ccc2c(-c3cccc4c(C[C@H](NC(=O)[C@]5(C)CC[C@H](N6CCC(F)(F)CC6)CC5)C(=O)O)cccc34)nccc2c1 [Compound 586],> 1000
19,Cn1c(=O)c(-c2cccc3c(C[C@H](NC(=O)c4c(F)cc(N5CCOC[C@H]5c5ccccc5)cc4F)C(=O)O)cccc23)c(C(F)(F)F)c2ccccc21 [Compound 334],> 1000

# Continued, values first:
row,IC50 [nM],SMILES
1,> 1000,Cn1c(=O)c(-c2cccc3c(C[C@H](NC(=O)c4c(F)cc(N5CCO[C@@H](c6ccccc6)C5)cc4F)C(=O)O)cccc23)c(C(F)(F)F)c2ccccc21 [Compound 338]
2,100 to 1000,Cn1c(=O)c(-c2cccc3c(C[C@H](NC(=O)c4c(F)cc(N5CCC[C@@H]5C(F)(F)F)cc4F)C(=O)O)cccc23)c(C(F)(F)F)c2ccccc21 [Compound 319]
3,> 1000,Cn1c(=O)c(-c2cccc3c(C[C@H](NC(=O)c4c(F)cc(N5CCOC(c6cccc(C(F)(F)F)c6)C5)cc4F)C(=O)O)cccc23)c(C(F)(F)F)c2ccccc21 (some centres unmarked) [Compound 342]
4,100 to 1000,CN1CCC(c2cc(F)c(C(=O)N[C@@H](Cc3cccc4c(-c5c(C(F)(F)F)c6ccccc6n(C)c5=O)cccc34)C(=O)O)c(F)c2)CC1 [Compound 383]
5,> 1000,Cc1c(C(=O)N[C@@H](Cc2cccc3c(-c4c(C(F)(F)F)c5ccccc5n(C)c4=O)cccc23)C(=O)O)nn2ccccc12 [Compound 329]
6,> 1000,Cc1cccc(C)c1-c1cc(F)c(F)c(C(=O)N[C@@H](Cc2cccc3c(-c4c(C(F)(F)F)c5ccccc5n(C)c4=O)cccc23)C(=O)O)c1 [Compound 306]
7,> 1000,Cc1cccc(C)c1-c1nc(C(=O)N[C@@H](Cc2cccc3c(-c4c(C(F)(F)F)c5ccccc5n(C)c4=O)cccc23)C(=O)O)c(C)n1C [Compound 349]
8,> 1000,Cn1c(=O)c(-c2cccc3c(C[C@H](NC(=O)c4c(F)cc(C5CCCCC5)cc4F)C(=O)O)cccc23)c(C(F)(F)F)c2ccccc21 [Compound 376]
9,> 1000,Cn1c(=O)c(-c2cccc3c(C[C@H](NC(=O)c4c(F)cc(OC(F)(F)F)cc4F)C(=O)O)cccc23)c(C(F)(F)F)c2ccccc21 [Compound 370]
10,> 1000,Cn1c(=O)c(-c2cccc3c(C[C@H](NC(=O)c4c(F)cc(N5CCO[C@H](c6ccccc6)C5)cc4F)C(=O)O)cccc23)c(C(F)(F)F)c2ccccc21 [Compound 333]
11,100 to 1000,Cn1c(=O)c(-c2cccc3c(C[C@H](NC(=O)c4c(F)cc(N5CCOC6(CCC6)C5)cc4F)C(=O)O)cccc23)c(C(F)(F)F)c2ccccc21 [Compound 340]

# Same assay, conditions: integrin adhesion assay; determined by at least one of the assays described (protocol not specified)
row,SMILES,IC50 [nM]
1,C=CCc1cn(C)c(=O)n(-c2cccc3c(C[C@H](NC(=O)c4c(F)cccc4F)C(=O)O)cccc23)c1=O [Compound 136],10 to 100
2,Cn1ccc(C(F)(F)F)c(-c2cncc3c(C[C@H](NC(=O)c4c(F)cccc4F)C(=O)O)cccc23)c1=O [Compound 211],10 to 100
3,Cc1nccc(O)c1C(=O)N[C@@H](Cc1cccc2c(-n3c(=O)ccn(C)c3=O)cccc12)C(=O)O [Compound 125],> 1000

# Further lines, results first:
row,IC50 [nM],SMILES
1,> 1000,Cn1ccc(=O)n(-c2cccc3c(C[C@H](NC(=O)C4(C)CCCN(CC(F)(F)F)C4)C(=O)O)cccc23)c1=O (some centres unmarked) [Compound 121]
2,100 to 1000,Cn1ccc(=O)n(-c2cccc3c(C[C@H](NC(=O)[C@@H]4CCCN4S(=O)(=O)c4ccccc4)C(=O)O)cccc23)c1=O [Compound 109]
3,10 to 100,Cc1nn(C2CCOCC2)c(C)c1C(=O)N[C@@H](Cc1cccc2c(-n3c(=O)ccn(C)c3=O)cccc12)C(=O)O [Compound 123]
4,< 10,Cn1ccc(=O)n(-c2cccc3c(C[C@H](NC(=O)c4c(F)ccc(NS(=O)(=O)C5CC5)c4F)C(=O)O)cccc23)c1=O [Compound 134]

# Target: T1, α4β7 integrin
# Experiment: Integrin Adhesion Assay: Protocol 4 (MAdCAM-coated plate, RPMI-8866 cells with stable LOF mutation of the ITGB1 gene)
# Format: cell-based
# Conditions: Protocol 4; RPMI-8866 cells with LOF mutation of ITGB1, MAdCAM; read-out: Mean IC50 α4β7 KO
# In short: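 RPMI-8866 cells with CRISPR/Cas9 knockout of ITGB1 (2×10^6/mL) were added to MAdCAM-coated wells with compound (1% DMSO) in HEPES/NaCl buffer with 1 mM MnCl2, 0.1 mM CaCl2 and 1% BSA, then incubated 1 h at 37 °C. After four washes, adherent cells were quantified by CellTiter-Glo luminescence. Percent inhibition versus DMSO and control compound was fitted to 4-parameter curves.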
row,SMILES,IC50 [nM]
1,COc1ccc(CN2CCCCC2)c(OC)c1-c1cccc2c(C[C@H](NC(=O)C3(C(F)(F)F)CCN(CC(F)(F)F)CC3)C(=O)O)cccc12 [Compound 784],< 10
2,O=C(O)[C@H](Cc1cccc2c(-c3ncc(CN4CC5CC(C5)C4)c4ccccc34)cccc12)NC(=O)C1(C(F)(F)F)CCN(CC(F)(F)F)CC1 [Compound 885],< 10

# Same assay, conditions: RPMI-8866 cells with stable LOF mutation of the ITGB1 gene; read-out: Mean IC50 α4β7 KO^a
row,SMILES,IC50 [nM]
1,Cc1cc(C(F)(F)F)c(-c2cccc3c(C[C@H](NC(=O)C4(C(F)(F)F)CCN(CC(F)(F)F)CC4)C(=O)O)cccc23)c(=O)n1C [Compound 453],< 10
2,COc1cccc(CN2CCCCC2)c1-c1cccc2c(C[C@H](NC(=O)c3c(F)cccc3C(C)C)C(=O)O)cccc12 [Compound 540],< 10
3,Cn1c(=O)c(-c2cccc3c(C[C@H](NC(=O)C4(C(F)(F)F)CCN(C(C(F)(F)F)C(F)(F)F)CC4)C(=O)O)cccc23)c(C(F)(F)F)c2ccccc21 [Compound 490],> 1000

# Target: α4β1 integrin (Homo sapiens (Human), UniProt P05556+P13612)
# Sequence (P13612 34-1032): as the sequence (P13612 34-1032) above
# Sequence (P05556 21-798): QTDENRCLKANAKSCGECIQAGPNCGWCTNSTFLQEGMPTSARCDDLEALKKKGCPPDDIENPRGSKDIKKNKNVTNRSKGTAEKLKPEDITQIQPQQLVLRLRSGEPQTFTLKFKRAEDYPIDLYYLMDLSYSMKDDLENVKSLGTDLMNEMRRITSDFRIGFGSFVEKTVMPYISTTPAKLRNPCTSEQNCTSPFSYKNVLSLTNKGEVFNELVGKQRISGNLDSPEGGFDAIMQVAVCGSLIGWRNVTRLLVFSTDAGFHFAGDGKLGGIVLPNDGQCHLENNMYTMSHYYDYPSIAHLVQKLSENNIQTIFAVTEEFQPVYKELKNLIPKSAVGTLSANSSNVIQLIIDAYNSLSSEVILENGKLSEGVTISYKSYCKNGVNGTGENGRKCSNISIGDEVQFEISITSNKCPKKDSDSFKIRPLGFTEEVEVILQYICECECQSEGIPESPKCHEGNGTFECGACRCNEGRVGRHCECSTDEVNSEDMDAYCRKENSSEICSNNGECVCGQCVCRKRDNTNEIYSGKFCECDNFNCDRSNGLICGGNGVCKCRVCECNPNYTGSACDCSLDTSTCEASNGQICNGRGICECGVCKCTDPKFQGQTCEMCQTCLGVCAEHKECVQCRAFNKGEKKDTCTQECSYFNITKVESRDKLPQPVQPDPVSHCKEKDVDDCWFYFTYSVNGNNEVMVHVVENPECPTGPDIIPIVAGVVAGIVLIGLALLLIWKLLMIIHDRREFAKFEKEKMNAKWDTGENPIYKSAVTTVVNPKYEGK
# Experiment: Integrin Adhesion Assay: Protocol 5 (VCAM-coated plate, RPMI-8866 cells with stable LOF mutation of the ITGB7 gene)
# Format: cell-based
# Conditions: Protocol 5; RPMI-8866 cells with LOF mutation of ITGB7, VCAM; read-out: Mean IC50 α4β1 KO
# In short: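 RPMI-8866 B cells with CRISPR/Cas9 ITGB7 knockout (clonal, verified by flow cytometry) adhered to VCAM-coated wells for 1 h at 37° C in HEPES/NaCl buffer with 1 mM MnCl2, 0.1 mM CaCl2, 1% BSA, 1% DMSO. Bound cells quantified by CellTiter-Glo luminescence after washing; % inhibition versus DMSO and control, 4-parameter fit.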
row,SMILES,IC50 [nM]
1,COc1ccc(CN2CCCCC2)c(OC)c1-c1cccc2c(C[C@H](NC(=O)C3(C(F)(F)F)CCN(CC(F)(F)F)CC3)C(=O)O)cccc12 [Compound 784],100 to 1000
2,O=C(O)[C@H](Cc1cccc2c(-c3ncc(CN4CC5CC(C5)C4)c4ccccc34)cccc12)NC(=O)C1(C(F)(F)F)CCN(CC(F)(F)F)CC1 [Compound 885],> 1000

# Same assay, conditions: RPMI-8866 cells with stable LOF mutation of the ITGB7 gene; read-out: Mean IC50 α4β1 KO^b
row,SMILES,IC50 [nM]
1,Cc1cc(C(F)(F)F)c(-c2cccc3c(C[C@H](NC(=O)C4(C(F)(F)F)CCN(CC(F)(F)F)CC4)C(=O)O)cccc23)c(=O)n1C [Compound 453],100 to 1000
2,COc1cccc(CN2CCCCC2)c1-c1cccc2c(C[C@H](NC(=O)c3c(F)cccc3C(C)C)C(=O)O)cccc12 [Compound 540],100 to 1000
3,Cn1c(=O)c(-c2cccc3c(C[C@H](NC(=O)C4(C(F)(F)F)CCN(C(C(F)(F)F)C(F)(F)F)CC4)C(=O)O)cccc23)c(C(F)(F)F)c2ccccc21 [Compound 490],> 1000
